Data on one compound can be found in article PMC12250302, “Synthesis, Antimicrobial Activities, and Model of Action of Novel Tetralone Derivatives Containing Aminoguanidinium Moiety” (International Journal of Molecular Sciences, 2025).

≈ marks a conversion by molar mass, not a printed value.

In series [1] the test system is human liver cell line (HepG2). Put plainly: Cytotoxicity, CCK-8 method. Format: cell-based. On the procedure: (§1) The CCK-8 method was used to evaluate the toxicity of 2D to four cell lines (lung cancer cell line (A549), human liver cell line (HepG2), human embryonic kidney 293T cells (HEK 293-T), and human colon adenocarcinoma cell line (Caco-2)). Cells with a density of 1 × 10^5 cells/well were added to 96-well plates and then incubated for 24 h at 5% CO2 and 37 °C. Subsequently, after treatment with different concentrations of 2D for 24 h, the CCK-8 kit was added according to the prescribed procedure. Following an incubation at 37 °C for 0.5 h, the absorbances at 450 nm were detected. The […] was calculated according to the following formula:Cytotoxic (%) = (Atest/Acontrol) × 100%(2)
(In general: Tetrazolium assays rely on reduction of a dye to a coloured formazan, in cell work by metabolically active cells.)

Series [2] deals with human colon adenocarcinoma cell line (Caco-2). As to the kind of experiment: Cytotoxicity, CCK-8 method. Format: cell-based. On the procedure: as §1
The test system of series [3] is lung cancer cell line (A549). Put plainly: Cytotoxicity, CCK-8 method. Type of series: cell-based. As to the method: as §1
The subject of series [4] is human embryonic kidney 293T cells (HEK 293-T). Put plainly: Cytotoxicity, CCK-8 method. Format: cell-based. On the procedure:
as §1

For the next series, the system named is sheep red blood cells. As to the kind of experiment: Hemolytic activity. Format: cell-based. On the procedure:
The hemolysis of compound 2D was determined by its ability to lyse sheep red blood cells. The results were expressed as the HC50 value (the concentration at which 50% of red blood cells were lysed).
The sterile defibrillated sheep blood cells were centrifuged (5000 rpm, 5 min) and then washed three times with 0.9% saline. Subsequently, 1 μL of different concentrations of 2D (0.5–128 μg/mL) was mixed with 999 μL of red blood cell suspension. After incubation at 37 °C for 1 h, the mixed solution was centrifuged. The absorbance of the supernatant at 570 nm was measured. Triton X-100 (0.1%) was used as a positive control, and DMSO was used as a negative control. The hemolysis rate was calculated according to the following formula:Hemolysis rate (%) = (ODTreatment − ODNegative)/(ODPositive − ODNegative) × 100%(1)

Another series concerns E. coli ATCC 25922. Put plainly: MIC and MBC testing, broth microdilution. The note with it: Escherichia coli. Format: cell-based, Escherichia coli. The essentials: (§2)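 Visible growth was scored after 18 h at 37 °C, and the MIC was taken as the lowest compound concentration showing none. Bacteria were grown to logarithmic phase in MH broth and diluted to 1 × 10^6 CFU/mL before combining with twofold compound dilutions.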

In another series the test system is S. aureus (ATCC 29213). Put plainly: Growth curve (OD600). Format: cell-based, Staphylococcus aureus. The note with it: 2D 0.5, 1, 2, 4, 8 µg/mL, vancomycin 0.5 and 1 μg/mL. On the procedure:
(§3) The growth inhibition and time-dependent killing abilities of 2D were evaluated against S. aureus (ATCC 29213) and MRSA-2. After culturing the strains in MH broth until the logarithmic growth phase, they were diluted with MH broth to 1 × 10^6 CFU/mL. […] OD600 values were measured at predetermined time intervals (0, 1, 2, 4, 6, 8, 10, 12, and 24 h).

The test system of series [5] is MRSA-2. As to the kind of experiment: Growth curve (OD600). Type of series: cell-based, Staphylococcus aureus. The note with it: 2D 0.5, 1, 2, 4, 8 µg/mL, vancomycin 0.5 and 1 μg/mL. As to the method: as §3
The next series deals with E. faecium ATCC 35667. Put plainly: MIC and MBC testing, broth microdilution. Type of series: cell-based, Enterococcus faecium. The note with it: Enterococcus faecium, ATCC35667, E. faecium ATCC 35667. The method, boiled down:
as §2

The test system of the next series is P. aeruginosa ATCC 27853. As to the kind of experiment: MIC and MBC testing, broth microdilution. Type of series: cell-based, Pseudomonas aeruginosa. The note with it: Pseudomonas aeruginosa. The essentials: as §2
Series [6] deals with MRSA-2. As to the kind of experiment: Bacterial DNA and protein leakage experiment. Format: cell-based, Staphylococcus aureus. The note with it: compared with the control group; 4 h. As to the method: MRSA-2 was cultured to logarithmic growth phase. The bacterial precipitate was collected, washed twice with PBS (pH = 7.2–7.4), and resuspended in PBS to 1 × 10^7 CFU/mL. […] After centrifugation of 1 mL of the suspension, the supernatant was collected. The protein level was measured by BCA protein concentration kits (Servicebio, Hubei, China), and the DNA level was detected by microspectrophotometer.

For the next series, the system named is A. baumannii ATCC 19606. Put plainly: MIC and MBC testing, broth microdilution. Type of series: cell-based, Acinetobacter baumannii. The note with it: Acinetobacter baumannii. The method, boiled down:
as §2

Series [7] relates to MRSA-2. Put plainly: Membrane depolarization assay, DiSC3(5). Type of series: cell-based, Staphylococcus aureus. The note with it: 2, 4, and 8 μg/mL. As to the method:
MRSA-2 was cultivated in MH broth, with a final concentration of 1 × 10^8 CFU/mL. After centrifugation, the supernatant was discarded. The bacterial precipitate was washed thrice and resuspended with PBS. Subsequently, the bacterial resuspension (180 μL) and the DiSC5 (10 μL, 3 μM) were incubated in the dark for 30 min. The fluorescence intensity was measured at 2 min intervals for a period of 10 min. After the fluorescence intensity was stabilized, 10 μL of 2D (final concentrations of 1, 2, 4, and 8 μg/mL) was added, respectively. The fluorescence intensity was measured at 2 min intervals for a total duration of 30 min. The excitation/emission wavelength was 622/670 nm.

As usually defined, the IC50 is the point on the concentration scale where inhibition reaches its midpoint. The term HC50 denotes the concentration giving 50% haemolysis. The MIC is the least concentration at which growth counts as inhibited. Usually MBC stands for the smallest concentration meeting the test's criterion for killing. Take `[H]/N=C(\N)NN=C1CCCc2cc(OCCCCCCC)ccc21` [Compound 2D, (E)-2-(6-(heptyloxy)-3,4-dihydronaphthalen-1(2H)-ylidene)hydrazine-1-carboximidamide]: the IC50 in [1] (Homo sapiens, HepG2, 24 h, CCK-8) came out at 6 µg/mL (≈ 19 µM); in series [2] (Homo sapiens, CaCo-2, 24 h, CCK-8) it was 9.86 µg/mL (≈ 31.2 µM); in series [3] (Homo sapiens, A549, 24 h, CCK-8) it was 3.57 µg/mL (≈ 11.3 µM); in [4] (Homo sapiens, HEK 293-T, 24 h, CCK-8), 13.1 µg/mL (≈ 41.4 µM). In addition, the “Selectivity index (SI)” value in [1] (SI = IC50 (HepG2)/MIC ATCC 29213) came to 12.00; in [2] (SI = IC50 (CaCo-2)/MIC ATCC 29213) it was 19.72; in [3] (SI = IC50 (A549)/MIC ATCC 29213), 7.14; in [4] (SI = IC50 (HEK 293-T)/MIC ATCC 29213), 26.18; in the series with sheep red blood cells (SI = HC50/MIC ATCC 29213), 101.30. The 50% haemolytic concentration (HC50) in the series on sheep red blood cells (sheep red blood cells, 37 °C, 1 h) is recorded as 50.65 µg/mL. The MIC in the series on E. coli ATCC 25922 (ATCC25922, 18 h, read-out: MIC) turned out to be 4 µg/mL (≈ 12.6 µM); in the series on E. faecium ATCC 35667 (18 h, read-out: MIC), 2 µg/mL (≈ 6.32 µM); in the series with P. aeruginosa ATCC 27853 (ATCC27853, 18 h, read-out: MIC), 16 µg/mL (≈ 50.6 µM); in the series on A. baumannii ATCC 19606 (ATCC19606, 18 h, read-out: MIC) it was 4 µg/mL (≈ 12.6 µM). The minimal bactericidal concentration (MBC) in the series on E. coli ATCC 25922 (ATCC25922, read-out: MBC) was 8 µg/mL (≈ 25.3 µM); in the series on E. faecium ATCC 35667 (read-out: MBC) it was 4 µg/mL (≈ 12.6 µM); with P. aeruginosa ATCC 27853 (ATCC27853, read-out: MBC) it was 32 µg/mL (≈ 101 µM); in the series on A. baumannii ATCC 19606 (ATCC19606, read-out: MBC), 16 µg/mL (≈ 50.6 µM). In addition, the “growth inhibition (growth curve)” value with S. aureus (ATCC 29213) and in the series on MRSA-2 [5] was “able to suppress the growth” throughout. In the series on MRSA-2 [6], the “content of extracellular DNA” value is given as “significantly increased”. Also, the “content of extracellular protein” value with MRSA-2 [6] is “significantly increased”. For the same compound, the “DiSC3(5) fluorescence intensity (depolarization)” value in the series with MRSA-2 [7] is “increased instantaneously”.
